melting point [°C] | SMILES
66 to 68 | COC(=O)c1ccc(OC)c(F)c1F
92 to 95 | CC(=O)c1cc(Br)c(N)c(CN(C)C)c1
149 to 151 | Cc1cc(=O)n(-c2cc(OC(C)C)c(Cl)cc2F)c(=O)n1C
30 | CCOC(=O)c1cc(Br)c(C(=O)OCC)cc1F
201 to 202 | O=C1CCCC12CNc1ccc(Cl)cc12 (centres undefined)
206 to 207 | O=C(O)Cc1c(Cl)cc([N+](=O)[O-])cc1Cl
209 to 211 | CCc1c(-c2ccc(OC)cc2)c2c(C(=O)O)c(C(=O)O)c3cc(OC)cc1n32
252 to 258 | O=C(O)c1cn(-c2ccc(F)cc2F)c2nc(S(=O)(=O)c3ccccc3)c(F)cc2c1=O
270 | O=C(Oc1ccccc1)OC1C2=C(OCCS2)C(=O)N1c1ccc2ccc(Cl)nc2n1 (centres undefined)
184 | O=[N+]([O-])c1ccccc1SNc1nc(OCc2ccc(F)cc2)ncc1F
140 to 142 | O=C(N[C@H]1CCCNC1=O)c1cc(F)ccc1F
284 to 286 | COc1cc2nc(N3CCN(C(=O)C4CC4)CC3)nc(N)c2cc1OC
90.5 to 92 | COc1ccccc1OC(=O)CNC(=O)C(C)SC(=O)c1cccs1 (centres undefined)
160 | c1ccc2c(c1)OCC(CN1CCC(CNc3nc4cc5c(cc4s3)OCO5)CC1)O2 (centres undefined)
98 to 100 | CCOC(=O)c1ccccc1SN(C(=O)NC(=O)c1ccccc1Cl)c1ccc(Oc2ccc(C(F)(F)F)cc2Cl)cc1
193 to 195 | CC[C@H](C)[C@H](NC(=O)O[C@@H](CC(C)C)C(=O)O)C(=O)NC1CCCCC1
289 | COc1cc2c(O)nc(-c3ccc(Cl)cc3)nc2c(OC)c1OC
175 to 179 | CC(c1ccc(CCn2cnc3cc(-c4ccc(Cl)cc4)sc3c2=O)cc1)N1CCCCC1 (centres undefined)
175 | Nc1c(Cl)cc(C(=O)NC2CCN(CC3CCCO3)CC2)c2c1CCO2 (centres undefined)
58 to 60 | C[Si](C)(C)CCOC(=O)CN1C(=O)[C@@H](N2C(=O)c3ccccc3C2=O)CSC1c1ccccc1 (some centres undefined)

melting point [°C] | SMILES
247 | CCOC(=O)C1=C(Cc2ccccc2)Nc2n[nH]cc2C1c1ccccc1Cl (centres undefined)
228 to 229 | CC1(C)Oc2ccc(Cl)cc2C12NC(=O)NC2=O (centres undefined)
154 | COc1ccc(CN(C)CCCc2ccc(NC(=O)c3cccc4c(=O)c5cccc(OC)c5[nH]c34)c(C)c2)cc1OC
102 to 110 | CC(=O)NCC1CN(c2ccc(N3CC4CCCN(C(=O)CO)C4C3)c(F)c2)C(=O)O1 (centres undefined)
76 to 91 | Cc1nc2scc(-c3ccccc3)n2c(=O)c1CCN1CCC(c2noc3cc(F)ccc23)CC1
158 to 159 | CC(=O)NCC1CC(c2cc(F)c(N3CCN(C(=O)C4COc5ccccc5O4)CC3)c(F)c2)=NO1 (single isomer, unassigned; (-))
122 to 124 | Cc1[nH]c2ccc(CCOS(C)(=O)=O)cc2c1C(=O)OCc1ccccc1
80 to 83 | N#Cc1cccc(N=C(NCC(=O)O)NCC2CCCCC2)c1
179 | CC1=C(/C=C/C(C)=C/C=C\c2ccc(C(=O)O)cc2)C(C)(C)CCC1
263 to 265 | Cc1c(C(=O)O)ccc2c1OC(c1ccccc1)(c1ccccc1)O2
138 to 140 | CCCNC(=O)c1cnc2c(C)cccn2c1=O
160 to 161 | CCOC(=O)c1cccc2nc(OC)n(Cc3ccc(-c4ccccc4C#N)cc3)c12
153 to 154 | C#CCN1C(=O)COc2cc(F)c(N(C(C)=O)C(=O)C3=C(C(=O)OC)CCCC3)cc21
218 to 221 | CN1C(=O)C(c2cccc(-c3cccnc3F)c2)(c2cc(C=O)n(CCF)c2)N=C1N (centres undefined)
115 | CC(SC1COC(c2ccc(C(=O)Nc3ccc(C#N)c(Cl)c3)cc2)OC1)C(O)(Cn1cncn1)c1ccc(F)cc1F (centres undefined)
150 to 151 | O=C(O)CCc1ccc(NC(=O)C(COC2CCCCO2)NS(=O)(=O)c2ccc(Cl)cc2)cc1 (racemic)
184 to 185 | NC(=O)N1C(=O)C(=C(OC(=O)c2ccccn2)c2cccs2)c2cc(F)c(Cl)cc21
132 | CC(=O)COc1ccc2ccc(Oc3c(Cl)cc(C(F)(F)F)cc3Cl)cc2c1
187 to 189 | COc1cccc(CNC(=O)c2nc3cccc(O)c3c(=O)[nH]2)c1

The next lines start with the compound.

SMILES | melting point [°C]
CC(C)(C)OC(=O)N1CCN(CC(O)CNc2ccc(CC#N)cc2)CC1 (centres undefined) | 86 to 87
O=C(O)CCCOc1ccc(Nc2ccccc2)cc1 | 110 to 111
CC1CC(C)N(CCCNC(=O)CN2CCCC2=O)C(C)(C)C1 (centres undefined) | 85 to 87
CCCNc1nc(-c2ccccc2)c(-c2ccc(=O)n(C(C)C)n2)s1 | 165 to 166
CCc1c(-c2ccc(N(C)C)nn2)ssc1=S | 160
Oc1ccc(C(O)CN2CCN(C(c3ccccc3)c3ccccc3)CC2)cc1 (centres undefined) | 154
CCCCCCCCCC=[N+]([O-])CCCCCCCCCC | 63 to 65
CC1Nc2ccccc2N(Cc2ccccc2)C(=O)C1C/C=C/c1ccccc1 (centres undefined) | 119 to 120
Cc1cccc(-c2nc(CCOc3ccc(C=CC=C4OC(=O)NC4=O)cc3)c(C)o2)c1 | 213 to 214
CC(C)NC(=O)c1ccc(N2CCC(N3C(=O)OCc4ccccc43)CC2)nn1 | 120
CCOC(=O)c1ncn2c1CN=C(c1ccccc1F)c1cc(I)ccc1-2 | 200 to 202
CN1CCC[C@H]1c1cnccc1C(O)(c1ccccc1)c1ccccc1 | 232 to 234
O=C(c1ccccc1)c1ccc2nc(-c3ccc(Br)o3)[nH]c2c1 | 167 to 172
CCCN1C=CC=C2C(=O)NC(c3ccccc3OCC)N=C21 (centres undefined) | 134 to 137
COC(=O)c1cncn1C1c2ccccc2C(F)(F)C1(C)C (centres undefined) | 96 to 97
Nc1ccc(C(=O)c2ccccc2)c(Cl)c1 | 120 to 130
CSc1nc(N)nc(-c2ccc([N+](=O)[O-])o2)n1 | 179 to 181
Cc1nc(-c2ccc(N(C)C)cc2)sc1C(=O)O | 226 to 231
CCNc1nc(NCC)nc(-c2ccc(-c3ccccc3)cc2)n1 | 183 to 184
CC1Cc2ccc(Cl)cc2C(c2ccc([N+](=O)[O-])cc2)=NN1C(=S)Cl (centres undefined) | 210 to 214
Nc1ccc(OCC2CCN(c3ccncc3)CC2)cc1 | 207 to 209
CC(=O)Oc1ccc(-c2nc3c(N)nc(N)nc3nc2N)cc1 | 319 to 321
CN1CCC(NC(c2cccc(C#CCCCCN)c2)c2nc3ccccc3[nH]2)CC1 (centres undefined) | 79
Fc1cccc(F)c1-c1cncn1-c1ccc(Cl)cc1 | 170 to 172
c1cc(-c2nc3c4c(ncc3[nH]2)CCOC4)no1 | > 300
O=C(c1ccc(SCCO)c([N+](=O)[O-])c1)c1ccc(SCCO)c([N+](=O)[O-])c1 | 193 to 197
CC[C@H](C)CNC(=O)C[C@H](O)[C@H](CC(C)C)C(=O)OC(C)(C)C | 83 to 84
O=C(/C=C/c1cccc(F)c1)NC1CC1 | 90 to 91
CCOC(=O)c1c(C)nc(Cl)c([N+](=O)[O-])c1NC(C)(C)C | 35 to 36
O=C(O)C[C@H](NC(=O)CNC(=O)c1csc(NC(=O)NCc2ccccn2)n1)C(=O)NCc1ccccn1 | 164
